In patent publication US12097262B2, “mTORC1 inhibitors” (THE REGENTS OF THE UNIVERSITY OF CALIFORNIA, priority 2014, dated 2024):

Experiments:
[1] = system: SNU-449; assay: Cell viability assay (CellTiter-Glo), SNU-449; conditions: Homo sapiens; for EC50: SNU-449, 72 h, read-out: EC50 (nM) SNU-449
Experimental: (§1) The cells were grown in appropriate medium (vender recommended) supplemented with 10% heat-inactivated fetal bovine serum (FBS), in tissue culture dishes placed in a humidified incubator maintained at 37° C. in an atmosphere of 5% CO2 and 95% air.
(§2) Cell viability assay. Cells were seeded in a 96-multiwell plate at 3000-4000 cells per well in medium containing FBS and cells were incubated at 37° C. overnight. After 18-20 h, compounds in 10×DMSO solution (n=3) were added to the cells and were incubated for additional 3 days in a humidified incubator in an atmosphere of 5% CO2 and 95% air. After treatment of Cell Titer-Glo® luminescent cell viability assay reagent (Promega Corporation, Madison, WI USA), the luminescence value was recorded using SpectraMax M5 Multi-Mode Microplate Readers (Molecular Devices, LLC, Sunnyvale, CA USA). Concentration response curves were generated on GraphPad Prism (GraphPad Software, La Jolla, CA USA) by calculating the decrease in luminescence values in compound-treated samples relative to the DMSO controls.
(§3) Anti-proliferative effects of compounds were evaluated in human colorectal cancer HCT-15 cells (mutation: KRAS, PIK3CA), human hepatocellular carcinoma SNU-449 (mutation: TP53, CDKN2A), SNU-398 (mutation: CTNNB 1), SNU-182 (mutation: TP53) and renal adenocarcinoma 786-O (mutation: VHL, PTEN, TP53, CDKN2A) in 72 h after compound treatment.

[2] = system: SNU-182; assay: Cell viability assay (CellTiter-Glo), SNU-182; format: cell-based, human; conditions: Homo sapiens; for EC50: 72 h after compound treatment
Experimental: as §1, §2, §3

[3] = system: SNU-398; assay: Cell viability assay (CellTiter-Glo), SNU-398; format: cell-based, human; conditions: Homo sapiens; for EC50: 72 h after compound treatment
Experimental: as §1, §2, §3

[4] = system: 786-O; assay: Cell viability assay (CellTiter-Glo), 786-O; format: cell-based, human; conditions: Homo sapiens; for EC50: 786-0, 72 h after compound treatment
Experimental: as §1, §2, §3

[5] = system: phospho-4E-BP1, pS6, phospho-S473 of Akt in 786-O xenograft tumor; assay: Pharmacodynamic study in human renal cancer 786-O xenograft tumor in mice; format: in vivo
Experimental: Pharmacodynamic studies of M1071 in human renal cancer 786-O xenograft tumor in mice. […] Tumor samples were collected at 3 h after drug administration. For the MWF group, M-1071 was administered once daily every other day. At 4 h after the last administration, tumor samples were collected. After the freezing tumor samples, they were homogenized and treated with RIPA buffer containing phosphatase inhibitor and protease inhibitor. The following western blotting analysis were conducted in a similar way to abovementioned method.

[6] = system: mTORC1 and mTORC2 signaling (pS6, p4E-BP1, pAkt S473); assay: Time-course effects on mTORC1 and mTORC2 signaling in SNU-449; format: cell-based, human; conditions: 0.33-24 h
Experimental: Cellular Signaling Effects of Class mTOR Inhibitors. Cells were seeded in 60 mm cell culture dishes and incubated 1-2 days until 70-90% confluency. Cells were treated with compound solution in DMSO (1000×) and incubated at 37° C. in a 5% CO2 humidified incubator for a given length of time. Whole cell lysates were prepared using RIPA buffer (R^3792) (TEKnova, Hollister, CA USA) with a phosphatase inhibitor cocktail tablet PhosStop and a protease inhibitor cocktail tablet cOmplete Mini (Roche Diagnostics GmbH, Mannheim, Germany). Cell lysates (based on a certain amount of protein determined by Pierce BCA Protein Assay Kit (PI-23225) (Thermo Fisher Scientific Inc., Waltham, MA USA)) were electrophoresed using a Criterion Tris-HCl gel 4-20% (Bio-Rad Laboratories, Hercules, CA USA) and transferred to a nitrocellulose membrane (162-0115) (Bio-Rad Laboratories, Hercules, CA USA). After incubation for more than 1 h with a blocking buffer at room temperature, membranes were labeled with primary antibodies by overnight incubation at 4° C., followed by 1 hour incubation with horseradish peroxidase-conjugated (HRP-conjugated) secondary antibodies at room temperature. The following antibodies were used for immunoblot: phospho-Akt (S473) (#9271), phospho-Akt (T308) (#2965), total-Akt (#9272), phospho-S6 (Ser240/Ser244) (#2215L), S6 ribosomal protein (#2217), phospho-4E-BP1 (T37/T46) (#2855), total 4E-BP1 (#9644) (Cell Signaling Technology, Inc., Danvers, MA USA), FKBP12 (sc-28814) mouse β-actin (sc-8432) (Santa Cruz Biotechnology, Inc., Dallas, Texas USA), anti-rabbit IgG conjugated with horseradish peroxidase (HRP) (#7074), and anti-mouse IgG conjugated with HRP (#7076) (Cell Signaling Technology, Inc., Danvers, MA USA). Nitrocellulose membranes were exposed with SuperSignal® West Pico Chemiluminescent Substrate or Femto Maximum Sensitivity Substrate (Thermo Fisher Scientific Inc., Waltham, MA USA) and signals were recorded on a CL-Xposure film (Thermo Fisher Scientific Inc., Waltham, MA USA).

[7] = system: HCT-15; assay: Cell viability assay (CellTiter-Glo), HCT-15; format: cell-based, human; conditions: Homo sapiens; for EC50: 72 h after compound treatment
Experimental: as §1, §2, §3

[8] = system: TORC1 and TORC2 outputs (p4E-BP1, pS6); assay: Drug washout experiment in SNU-449 cells; format: cell-based, human; conditions: 30 nM for 3 h, then washout
Experimental: Cellular Signaling Effects of Class mTOR Inhibitors. Cells were seeded in 60 mm cell culture dishes and incubated 1-2 days until 70-90% confluency. Cells were treated with compound solution in DMSO (1000×) and incubated at 37° C. in a 5% CO2 humidified incubator for a given length of time. […] After incubation for more than 1 h with a blocking buffer at room temperature, membranes were labeled with primary antibodies by overnight incubation at 4° C., followed by 1 hour incubation with horseradish peroxidase-conjugated (HRP-conjugated) secondary antibodies at room temperature. […] Nitrocellulose membranes were exposed with SuperSignal® West Pico Chemiluminescent Substrate or Femto Maximum Sensitivity Substrate (Thermo Fisher Scientific Inc., Waltham, MA USA) and signals were recorded on a CL-Xposure film (Thermo Fisher Scientific Inc., Waltham, MA USA).
Drug Washout Experiment. SNU-449 cells were treated with 30 nM of compounds for 3 h. The medium was aspirated out and cells were washed with fresh 10% FBS in RPMI1640 medium. Then, cells were incubated with fresh 10% FBS in RPMI1640 medium at 37° C. for described time period.

[9] = system: mTORC1 and mTORC2; assay: Western blot analysis of mTORC1/mTORC2 inhibition in MCF-7 cells; format: cell-based; conditions: 4 hours, western blot (FIG. 13A)
Experimental: FIGS. 13A-13B. FIG. 13A: MCF-7 cells were treated for 4 hours with E1035 and M1071 before harvesting. FIG. 13B: SNU-449 cells were treated with 3 hours with E1010 before harvesting. Cells were lysed and blotted for the indicated proteins. M1071 has the narrowest concentration range between mTORC1 and mTORC2 inhibition. The concentration range between mTORC1 and mTORC2 inhibition widens for E1035.
Cell Culture and Western Blot Analysis. Cells were grown in 6-well plates and treated with inhibitor at the indicated concentrations or with vehicle (0.1% DMSO). Treated cells were lysed, and lysates were resolved by SDS-PAGE, transferred to nitrocellulose and blotted. All antibodies were purchased from Cell Signaling Technology.

[10] = Effect on blood glucose level in mice; conditions: mice (n=3), intraperitoneal, 1, 3 mg/kg
From the text: Effect on blood glucose level. […] Blood glucose levels (mg/dL) were monitored.

[11] = system: MCF-7 cells; assay: Cell proliferation assay (CellTiter-Glo, 72 h), MCF-7 cells; format: cell-based; conditions: 72 hours (FIG. 14B)
Experimental: FIGS. 14A-14B. FIG. 14A: 786-O cells were treated for 72 hours with the indicated drugs before cell viability was measured. […] FIG. 14B: MCF-7 cells were treated for 72 hours with the indicated drugs before cell viability was measured.
Cell proliferation assays. Cells grown in 96-well plates were treated with inhibitor in triplicate or vehicle (0.1% DMSO). After 72 h, cell viability was assessed with the […]-GLO® Luminescent Cell Viability Assay (Promega). Cell proliferation curves were generated using Prism.

[12] = system: mTORC1 and mTORC2 downstream signaling (pS6, p4E-BP1, pAkt S473); assay: Downstream signaling of mTOR by immunoblotting, dose dependence, HCT-15 and SNU-449 cells; format: cell-based, human; conditions: immunoblot at 3 h after compound treatment
Experimental: Downstream signaling of mTOR was tested using an immunoblotting method at 3 h after compound treatment.

[13] = clinical trials; cited from earlier work

Question: With `CO[C@H]1C[C@@H]2CC[C@@H](C)[C@@](O)(O2)C(=O)C(=O)N2CCCC[C@H]2C(=O)O[C@H]([C@H](C)C[C@@H]2CC[C@@H](OCCOCc3cn(CCOCCOCCOCCOCCOCCOCCOCCOCCC(=O)NCCCCn4nc(-c5ccc6oc(N)nc6c5)c5c(N)ncnc54)nn3)[C@H](OC)C2)CC(=O)[C@H](C)/C=C(\C)[C@@H](O)[C@@H](OC)C(=O)[C@H](C)C[C@H](C)/C=C/C=C/C=C/1C` [Compound M-1071, 40-O-(2-((1-(32-(4-amino-3-(2-aminobenzo[d]oxazol-5-yl)-1H-pyrazolo[3,4-d]pyrimidin-1-yl)-27-oxo-3,6,9,12,15,18,21,24-octaoxa-28-azadotriacontyl)-1H-1,2,3-triazol-4-yl)methoxy)ethyl)-rapamycin] as the compound, how does the EC50 [1] read?
Answer: < 10 nM

Question: What about the inhibition at 10 µM ([1]; SNU-449, read-out: % inhibition at 10 μM SNU-449) of the same compound?
Answer: 25 to 50%

Question: And the EC50 [2]?
Answer: < 10 nM

Question: What about the inhibition at 10 µM ([2]; read-out: % inhibition at 10 μM SNU-182, 10 μM) of the same compound?
Answer: 25 to 50%

Question: And the EC50 [3]?
Answer: < 10 nM

Question: And the inhibition at 10 µM ([3]; read-out: % inhibition at 10 μM SNU-398, 10 μM)?
Answer: 50 to 100%

Question: What about the EC50 [4] of the same compound?
Answer: < 10 nM

Question: And the inhibition at 10 µM ([4]; 786-0, read-out: % inhibition at 10 μM 786-O, 10 μM)?
Answer: 25 to 50%

Question: What about the “inhibition of pS6 and p4EBP-1 in tumor” value ([5]; 5 mg/kg) of the same compound?
Answer: complete inhibition

Question: What about the “inhibition of phospho-S473 of Akt in tumor” value ([5]; highest dosing of 5 mg/kg) of the same compound?
Answer: slight

Question: And the “Phosphorylation of S6 in tumor” value ([5]; intraperitoneal)?
Answer: inhibited

Question: What about the “inhibition against phospho-4E-BP1 in tumor” value ([5]; intraperitoneal, tumor collected 3 h after administration) of the same compound?
Answer: dose dependent inhibition

Question: And the “p4E-BP1 inhibition, time course” value [6]?
Answer: continuous complete inhibition of TORC1 outputs within 3-24 h

Question: And the “phosphorylation of Akt S473, time course” value [6]?
Answer: transient feedback activation on Akt S473 at 1 and 3 h, and then a slight inhibition was observed at 24 h

Question: And the EC50 [7]?
Answer: < 10 nM

Question: And the inhibition at 10 µM ([7]; read-out: % inhibition at 10 μM HCT-15, 10 μM)?
Answer: 50 to 100%

Question: And the “sustained inhibitory effect on p4E-BP1 after washout” value [8]?
Answer: at least 2 h

Question: What about the “sustained inhibitory effect on pS6 after washout” value [8] of the same compound?
Answer: at least 4 h

Question: What about the “concentration range between mTORC1 and mTORC2 inhibition” value [9] of the same compound?
Answer: narrowest

Question: And the mTORC2 inhibition [9]?
Answer: also inhibits mTORC2

Question: And the blood glucose level [10]?
Answer: no increase in blood glucose levels

Question: And the “effects on cell proliferation” value [11]?
Answer: potent effects on cell proliferation

Question: And the “mTORC1/2 downstream inhibition (pS6, p4E-BP1 and pAkt S473)” value [12]?
Answer: stronger inhibition of mTORC1 signaling (pS6 and p4E-BP1) compared to mTORC2 downstream Akt S473 phosphorylation

Question: And the p4E-BP1 inhibition [12]?
Answer: complete p4E-BP1 inhibition at drug concentrations in which pAkt S473 is not inhibited

Question: For `CC(C)n1nc(-c2ccc3oc(N)nc3c2)c2c(N)ncnc21` [MLN0128, reference compound], which EC50 [1] is on record?
Answer: 10 to 50 nM

Question: What about the EC50 [2] of the same compound?
Answer: 50 to 100 nM

Question: What about the dose limiting toxicity [13] of the same compound?
Answer: Grade ≥3 hyperglycemia

Question: And the EC50 [3]?
Answer: 10 to 50 nM

Question: What about the EC50 [4] of the same compound?
Answer: 50 to 100 nM

Question: What about the “p4E-BP1 inhibition, time course” value [6] of the same compound?
Answer: completely inhibited p4E-BP1 in early onset (0.33-1 h) and then partial phosphorylation of 4E-BP1 was observed after 3 h to 24 h

Question: And the “phosphorylation of Akt S473, time course” value [6]?
Answer: blocked phosphorylation of pAkt S473 continuously during 0.33-24 h

Question: And the EC50 [7]?
Answer: 50 to 100 nM

Question: And the “time until inhibitory effects disappeared after washout” value [8]?
Answer: ≤ 1 h

Question: What about the “mTORC1/2 downstream inhibition (pS6, p4E-BP1 and pAkt S473)” value [12] of the same compound?
Answer: pan-mTORC1/2 downstream inhibition
